According to patent US9518282B2, “Method for utilizing monoterpene glycosyltransferase” (SUNTORY HOLDINGS LIMITED, priority 2010, dated 2016):

Assays:
UGT85A1 = target: T1, UGT85A1 (Arabidopsis thaliana, UniProt Q9SK82); assay: Glycosylation activity of UGT85A1 on sugar acceptors, LC-MS; format: biochemical; details: for relative activity of UGT85A1 on sugar acceptors (in words, FIG. 12): measured per unit reaction time (5 minutes); for glycosylated product of UGT85A1 reaction detected (FIG. 11): same manner as Example 4, LC-MS
T1 construct: made in house; host or cells: E. coli
T1 sequence (Q9SK82 1-489): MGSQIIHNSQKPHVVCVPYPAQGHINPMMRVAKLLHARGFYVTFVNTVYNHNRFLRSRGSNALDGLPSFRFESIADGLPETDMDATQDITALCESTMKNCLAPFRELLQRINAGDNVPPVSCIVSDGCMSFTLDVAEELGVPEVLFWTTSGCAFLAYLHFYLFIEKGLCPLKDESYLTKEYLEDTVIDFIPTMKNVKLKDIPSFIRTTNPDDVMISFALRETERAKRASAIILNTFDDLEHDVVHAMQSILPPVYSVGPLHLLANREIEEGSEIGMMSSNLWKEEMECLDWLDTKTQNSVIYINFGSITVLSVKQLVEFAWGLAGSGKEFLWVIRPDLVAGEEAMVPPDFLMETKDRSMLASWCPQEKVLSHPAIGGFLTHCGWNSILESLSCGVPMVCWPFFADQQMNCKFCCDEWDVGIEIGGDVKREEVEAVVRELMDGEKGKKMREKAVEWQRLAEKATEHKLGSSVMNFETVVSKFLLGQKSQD
Protocol: (§1) Standard enzyme reaction conditions are as follows.
(§2) The enzyme reaction solution (5 μl) was analyzed by LC-MS under the following conditions.
In the same manner as shown in Example 4, linalool, 8-hydroxylinalool, geraniol and 8-hydroxygeraniol were used as sugar acceptors for activity measurement.

UGT85A3 [1] = target: T2, UGT85A3 (Arabidopsis thaliana, UniProt Q9LMF1); assay: Glycosylation activity of purified UGT85A3 on sugar acceptor substrates, LC-MS; format: biochemical; set-up: made in house; host or cells: E. coli BL21(DE3); details: for glycosylation activity of UGT85A3 on the sugar acceptor (product detected by LC-MS): 2 mM UDP-glucose, 1.5 mM sugar acceptor substrate, pH 7.5, 30° C., 1 hour
T2 sequence (Q9LMF1 1-488): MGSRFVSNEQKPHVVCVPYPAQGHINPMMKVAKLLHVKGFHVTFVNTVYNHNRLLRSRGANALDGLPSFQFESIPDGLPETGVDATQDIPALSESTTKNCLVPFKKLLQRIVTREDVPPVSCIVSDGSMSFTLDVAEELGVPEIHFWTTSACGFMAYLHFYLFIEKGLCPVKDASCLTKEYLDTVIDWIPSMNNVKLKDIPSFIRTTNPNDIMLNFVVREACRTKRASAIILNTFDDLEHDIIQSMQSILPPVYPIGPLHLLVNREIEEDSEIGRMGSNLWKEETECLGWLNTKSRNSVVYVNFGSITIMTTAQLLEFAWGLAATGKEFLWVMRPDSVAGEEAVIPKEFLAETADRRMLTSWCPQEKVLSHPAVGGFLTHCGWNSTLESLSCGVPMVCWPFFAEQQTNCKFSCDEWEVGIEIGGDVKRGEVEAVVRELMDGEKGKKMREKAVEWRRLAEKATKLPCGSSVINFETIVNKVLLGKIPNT
Protocol: Standard enzyme reaction conditions are as follows. […] LC Conditions Column: CAPCELL PAK C18-UG120 (2.0 mm I.D.×150 mm) Mobile phase: A: water (containing 0.05% formic acid), B: acetonitrile Gradient: linear concentration gradient of B from 15% to 90% over 15 minutes Flow rate: 0.2 ml per minute Column oven: 40° C. MS Conditions ESI (negative mode) SIM mode: (m/z 315, 338, 361, 363, 331, 354, 377, 429, etc.)

UGT85A3 [2] = target: T2, UGT85A3; details: 8-hydroxygeraniol as sugar acceptor; fraction of the UDP-glucose level
Protocol: as §1, §2

Row | Compound | relative activity of UGT85A1 on sugar acceptors (in words, FIG. 12) (UGT85A1) | glycosylated product of UGT85A1 reaction detected (FIG. 11) (UGT85A1) | glycosylation activity of UGT85A3 on the sugar acceptor (product detected by LC-MS) (UGT85A3 [1]) | further results
1 | C/C(=C\CC/C(C)=C/CO)CO [8-hydroxygeraniol, 8-Hydroxygeraniol] | higher activity | glycosylated products were detected | a peak with a molecular weight suggesting addition of one glucose molecule was obtained | sugar acceptor selectivity of UGT85A1 (relative activity) (UGT85A1; highest activity set to 100%, FIG. 12): 100%; activity of UGT85A3 on the 8-hydroxylated form compared with geraniol / linalool (FIG. 7) (UGT85A3 [1]; UDP-glucose as sugar donor, product yields compared): higher activity
2 | O=c1cc(-c2ccc(O)cc2)oc2cc(O)cc(O)c12 [Apigenin] | – | – | no glycosylation activity | –
3 | O=c1ccc2cc(O)c(O)cc2o1 [Esculetin] | – | – | no glycosylation activity | –
4 | O=C1C[C@@H](c2ccc(O)cc2)Oc2cc(O)cc(O)c21 [Naringenin] | – | – | no glycosylation activity | –
5 | O=c1c(O)c(-c2ccc(O)c(O)c2)oc2cc(O)cc(O)c12 [Quercetin] | – | – | no glycosylation activity | –
6 | CC(C)=CCCC(C)CCO (stereo not shown) [citronellol] | – | – | glycosylation activity | –
7 | CC(C)=CCC/C(C)=C/CO [geraniol] | higher selectivity for geraniol than linalool | glycosylated products were detected | – | –
8 | C=CC(C)(O)CCC=C(C)C (stereo not shown) [linalool] | very low relative activity | glycosylated products were detected | – | –
9 | C=CC(C)(O)CCC=C(C)CCC=C(C)C (stereo not shown) [nerolidol] | – | – | glycosylation activity | –
10 | UDP-gluconic acid | – | – | – | product level with the sugar donor relative to that with UDP-glucose (FIG. 8) (UGT85A3 [2]): less than 1/10
